Data: US9234176B2, “Chemically defined production of cardiomyocytes from pluripotent stem cells” (The Board of Trustees of the Leland Stanford Junior …, priority 2012, dated 2016)

Key:
hiPSC = test: Analysis of components of defined media for hiPSC cardiac differentiation (contraction score); type: cell-based, human; design: 9 components subtracting: cardiac differentiation score / 2 components subtracting: cardiac differentiation score: key: 0: no cardiac differentiation or cell death; +: some contraction; ++: >50% contraction; +++: >75% contraction; settings: for 21 components subtracting: cardiac differentiation score: a) each of the 21 components of B27 without insulin subtracted one at a time, score of medium lacking the component; for 10 components subtracting: cardiac differentiation score: b) second medium of 10 essential components, each subtracted one at a time; for 9 components subtracting: cardiac differentiation score: c) 9-component medium; for 9 components subtracting: cardiac differentiation score / 9 components (with 4 at 10x) subtracting: cardiac differentiation score / 6 components subtracting: cardiac differentiation score: each component subtracted; for 9 components (with 4 at 10x) subtracting: cardiac differentiation score: e) third medium with increased concentrations; for 6 components subtracting: cardiac differentiation score: f) fourth 6-component medium
Source text: Development of a Chemically Defined Cardiac Differentiation Platform. We first generated eleven pluripotent hiPSC lines under chemically defined conditions (FIG. 7) on a chemically synthesized vitronectin peptide substrate, with nonenzymatic passaging (FIG. 8). […] To formulate a chemically defined differentiation protocol, we concentrated on the observation that three unrelated media formations are capable of supporting growth factor-based monolayer cardiac differentiation: RPMI+B27-ins, supplemented StemPro-34, and LI-APEL (Table 5). […] Beginning with the 21 components of B27, we subtracted one component at a time and assessed for continued high efficiency differentiation (Table 6a-c) and also assessed components from two other two media (supplemented StemPro-34 and LI-APEL) that yielded benefits (Table 6d-f). We concluded that hiPSC cardiac differentiation was successful in a media consisting of […]: RPMI 1640 basal medium, L-ascorbic acid 2-phosphate (AA 2-P), and BSA (Table 6g).
Other additions to cardiac differentiation media tested were 10.7 μg/mL recombinant human transferrin, […], 1 μg/mL linoleic acid, 1 μg/mL linolenic acid, 2 ng/mL triiodo-l-thyronine, 2 μg/mL L-carnitine, 1 μg/mL D,L-alpha-tocopherol acetate, 100 ng/mL retinol acetate, 1 μg/mL ethanolamine, 20 ng/mL corticosterone, 9 ng/mL progesterone, 47 ng/mL lipoic acid, 100 ng/mL retinol, 1 μg/mL D,L-alpha-tocopherol, 100 ng/mL biotin, 2.5 ug/mL catalase, 2.5 μg/mL glutathione, 2.5 μg/mL superoxide dismutase, 2 μg/mL L-carnitine, 15 μg/mL D(+)-galactose, 16.1 μg/mL putrescine, 450 μM 1-thioglycerol, 55 μM 2-mercaptoethanol, 64 μg/mL L-ascorbic acid 2-phosphate (all from Sigma-Aldrich).

hPSC = test: Directed cardiac differentiation of hPSC in minimal media (Example 1); type: cell-based, human; settings: for Wnt signaling antagonist effective for cardiac differentiation: at a concentration of 5 μM
Method: Directed Cardiac Differentiation Procedure. (volumes provided are for a T25 flask; adjust volumes proportionately for larger vessels) Day 0 (day 4 after passage): Aspirate medium, and replace with 5 mL of minimal media (CDM3, D3, D4, or D11) supplemented with 6 uM of CHIR-99021 (CHIR-99021 can be used at 4-15 μM). Place flasks in a regular ambient O2, 5% CO2 incubator. Day 2: 48 h. Aspirate media and replace with 5 mL of minimal media (CDM3, D3, D4, or D11). Day 3: 72 h. Aspirate media and replace with 5 mL of minimal media (CDM3, D3, D4, or D11) supplemented with 0.5 uM C59 (C59 may be used at 0.5-5 μM). Day 5: Aspirate media and replace with 5 mL of minimal media (CDM3, D3, D4, or D11). From day 5 onwards media should be changed every 2 days with minimal media (CDM3, D3, D4, or D11).
From day 0 to day 2 (d0-d2), minimal media (CDM3, D3, D4, or D11) was supplemented with the Wnt signaling agonist CHIR-99021 (6-10 uM 48 h, d0-d2), which triggers canonical Wnt/β-Catenin signaling that leads to the subsequent up-regulation of BMP4 and activin A. Media is then exchanged to non-supplemented minimal media (CDM3, D3, D4, or D11) for 1 day followed by contact with a Wnt signaling antagonist (e.g., C59: 0.5-5 uM, 48 h, d3-d5) for 2 days. At day 5, 7, and 9 minimal media (CDM3, D3, D4, or D11) is exchanged for fresh media, and contraction begins between d7 and d10. At day 11, media is exchanged to a variant of minimal media (CDM3, D3, D4, or D11) without […] that results in the depletion of non-cardiomyocytes due to a lack of glycogen stores. Media was exchanged on day 13 for fresh media lacking glucose. At day 15, media was exchanged for fresh minimal media (CDM3, D3, D4, or D11) (containing glucose).
The presence of cardiomyocytes was verified in a number of different ways, for example: flow cytometry of cells contacted with an antibody specific for a cardiomyocyte marker (TNNT2); imaging of cells stained with antibodies specific for α-Sarcomeric actin (red) and Troponin T (TNNT2); electrophysiological profiling; and evaluating responsiveness to known cardioactive drugs (e.g., Norepinephrine). Assays performed on multiple different cell lines (including several hESC lines and over 30 hiPSC lines) confirmed that the subject methods are highly consistent and highly efficient, as very little variability was observed among the different cell lines.

[1] = d) component at 10 x concentration

Row | Compound | 21 components subtracting: cardiac differentiation score (hiPSC) | 10 components subtracting: cardiac differentiation score (hiPSC) | 9 components subtracting: cardiac differentiation score (hiPSC) | 9 components with the addition of: cardiac differentiation score (hiPSC; [1]) | also measured
1 | O=C(O)CCCC[C@@H]1CCSS1 (racemic) [Lipoic acid] | ++ (>50% contraction) |  |  |  | 
2 | NC(=O)c1ccc(-c2nc(-c3ccc4c(c3)OCO4)c(-c3ccccn3)[nH]2)cc1 [B8431542] |  |  |  |  | further enhancement of differentiation by pathway inhibitors (hPSC; small molecule inhibitors at the later stage of differentiation): did not further enhance the differentiation
3 | O=C(O)CCCC[C@@H]1SC[C@@H]2NC(=O)N[C@@H]21 [Biotin (vit B7), Biotin] | ++ (>50% contraction) |  |  |  | 
4 | C[C@]12C[C@H](O)[C@H]3[C@@H](CCC4=CC(=O)CC[C@@]43C)[C@@H]1CC[C@@H]2C(=O)CO [Corticosterone] | 0 | ++ (>50% contraction) |  |  | 
5 | O=C[C@H](O)[C@@H](O)[C@@H](O)[C@H](O)CO [D(+)-galactose] | ++ (>50% contraction) |  |  |  | 
6 | Cc1c(C)c2c(c(C)c1O)CCC(C)(CCCC(C)CCCC(C)CCCC(C)C)O2 [D,L-a-tocopherol (vit E), D,L-a-tocopherol] | ++ (>50% contraction) |  |  |  | 
7 | CC(=O)Oc1c(C)c(C)c2c(c1C)CCC(C)(CCCC(C)CCCC(C)CCCC(C)C)O2 [D,L-a-tocopherol acetate] | 0 | 0 | 0 | +++ (>75% contraction) | 9 components (with 4 at 10x) subtracting: cardiac differentiation score (hiPSC): +++ (>75% contraction)
8 | NCCO [Ethanolamine] | ++ (>50% contraction) |  |  |  | 
9 | N[C@@H](CCC(=O)N[C@@H](CS)C(=O)NCC(=O)O)C(=O)O [Glutathione (reduced)] | ++ (>50% contraction) |  |  |  | 
10 | C[C@]12CCC(=O)C=C1CC[C@@H]1[C@@H]2[C@@H](O)C[C@@]2(C)[C@H]1CC[C@]2(O)C(=O)CO [Hydrocortisone] |  |  |  |  | 9 components with the addition of: cardiac differentiation score (hiPSC; d) addition of components from the other media formulae of Table 5): +
11 | O=C1[C@H](Cc2ccc(O)cc2)N2C(=O)CCN(C(=O)NCc3ccccc3)[C@H]2CN1Cc1cccc2ccccc12 [ICG-001, (6S,9aS)-6-(4-hydroxybenzyl)-N-benzyl-8-(naphthalen-1-ylmethyl)-4,7-diaxo-hexahydro-2H-pyrazino[1,2-a]pyrimidine-1(6H)-carboxamide] |  |  |  |  | Wnt signaling antagonist effective for cardiac differentiation (hPSC): not found to be effective
12 | Cc1ccc2nc(NC(=O)CSc3nc4c(c(=O)n3-c3ccccc3)SCC4)sc2c1 [IWP-2, N-(6-Methyl-2-benzothiazoyl)-2-[(3,4,6,7-tetrahydro-4-oxo-3-phenylthieno[3,2-d]pyrimidin-2-yl)thio]-acetamide] |  |  |  |  | Wnt signaling antagonist effective for cardiac differentiation (hPSC): effective
13 | COc1ccccc1-n1c(SCC(=O)Nc2nc3ccc(C)cc3s2)nc2c(c1=O)SCC2 [IWP-4, 2-(3,4,6,7-tetrahydro-3-(2-methoxyphenyl)-4-oxothieno[3,2-d]pyrimidin-2-ylthio)-N-(6-methylbenzo[d]thiazol-2-yl)acetamide] |  |  |  |  | Wnt signaling antagonist effective for cardiac differentiation (hPSC): effective
14 | C[N+](C)(C)C[C@H](O)CC(=O)[O-] [L-carnitine] | 0 | 0 | 0 | 0 | 
15 | CCCCC/C=C\C/C=C\CCCCCCCC(=O)O [Linoleic acid] | 0 | 0 | 0 | + | 9 components (with 4 at 10x) subtracting: cardiac differentiation score (hiPSC): 0; 6 components subtracting: cardiac differentiation score (hiPSC): +++ (>75% contraction)
16 | CC/C=C\C/C=C\C/C=C\CCCCCCCC(=O)O [Linolenic acid] | 0 | 0 | 0 | + | 9 components (with 4 at 10x) subtracting: cardiac differentiation score (hiPSC): 0; 6 components subtracting: cardiac differentiation score (hiPSC): +++ (>75% contraction)
17 | CC(=O)[C@H]1CC[C@H]2[C@@H]3CCC4=CC(=O)CC[C@]4(C)[C@H]3CC[C@]12C [Progesterone] | ++ (>50% contraction) |  |  |  | 
18 | NCCCCN [Putrescine] | ++ (>50% contraction) |  |  |  | 
19 | CC(=O)OC/C=C(C)/C=C/C=C(C)/C=C/C1=C(C)CCCC1(C)C [Retinol acetate (vit A), Retinol acetate] | 0 | 0 | 0 | +++ (>75% contraction) | 9 components (with 4 at 10x) subtracting: cardiac differentiation score (hiPSC): +++ (>75% contraction)
20 | CC1=C(/C=C/C(C)=C/C=C/C(C)=C/CO)C(C)(C)CCC1 [Retinol, all trans (vit. A), Retinol, all trans] | ++ (>50% contraction) |  |  |  | 
21 | O=[Se](O)O [Sodium selenite] | 0 | 0 | 0 | +++ (>75% contraction) | 6 components subtracting: cardiac differentiation score (hiPSC): +++ (>75% contraction)
22 | N[C@@H](Cc1cc(I)c(Oc2ccc(O)c(I)c2)c(I)c1)C(=O)O [T3 (triiodol-l-thyronine), triiodol-l-thyronine] | 0 | 0 | 0 | +++ (>75% contraction) | 9 components (with 4 at 10x) subtracting: cardiac differentiation score (hiPSC): +++ (>75% contraction)
23 | Catalase | ++ (>50% contraction) |  |  |  | 
24 | Holo transferrin: B27 component | 0 | 0 | 0 | + | 6 components subtracting: cardiac differentiation score (hiPSC): +++ (>75% contraction)
